Measurements from patent US8044079B2, “Substituted oxindole derivatives, medicaments containing said derivatives and use thereof” (Abbott GmbH & Co. KG, priority 2005, dated 2011).

Target: T1, human vasopressin V1b receptor (Homo sapiens, UniProt P47901)
T1 construct: expressed in transfected cells; host or cells: CHO-K1 (cell line hV1b_3H2_CHO), membrane preparation
T1 sequence (P47901 1-424): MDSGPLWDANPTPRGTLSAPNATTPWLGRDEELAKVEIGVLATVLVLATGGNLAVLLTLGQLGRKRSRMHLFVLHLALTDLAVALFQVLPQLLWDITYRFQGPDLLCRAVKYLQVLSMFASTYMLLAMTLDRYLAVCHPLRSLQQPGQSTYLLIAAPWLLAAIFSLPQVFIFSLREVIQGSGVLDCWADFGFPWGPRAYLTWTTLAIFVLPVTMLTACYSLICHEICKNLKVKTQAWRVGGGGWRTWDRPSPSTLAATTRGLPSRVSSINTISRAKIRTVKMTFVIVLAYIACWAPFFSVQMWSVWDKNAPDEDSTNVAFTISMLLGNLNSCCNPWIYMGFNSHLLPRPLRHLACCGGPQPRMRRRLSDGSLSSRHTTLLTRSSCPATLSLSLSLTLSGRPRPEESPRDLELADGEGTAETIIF
Experiment: Vasopressin V1b receptor binding test
Conditions: membranes of CHO-K1 cells with human V1b receptor, displacement of 1.5 nM 3H-AVP; for compounds with more than one stereogenic center the diastereomer with greater affinity
Method in brief: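 Affinity constants (Ki) came from nonlinear regression of triplicate scintillation counts after filtration separated bound from free radioligand. Compounds competed at human V1b membranes for 60 min, room temperature, in pH 7.4 tris/MgCl2/BSA buffer with 2% DMSO; 1 μM AVP defined nonspecific binding.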

Row | Ki [nM] | Structure (SMILES)
1 | 100 to 1000 | COc1ccc(CN2CCN(C)CC2)cc1C1(N2CCC[C@H]2c2ncco2)C(=O)N(S(=O)(=O)c2ccc(OC(F)(F)F)cc2)c2ccc(Cl)cc21 (stereo partly drawn) [Example 141, 5-Chloro-3-[2-methoxy-5-(4-methylpiperazin-1-ylmethyl)phenyl]-3-((S)-2-oxazol-2-yl-pyrrolidin-1-yl)-1-(4-trifluoromethoxybenzenesulfonyl)-1,3-dihydroindol-2-one]
2 | < 10 | COc1ccc(S(=O)(=O)N2C(=O)C(c3cc(CN4CCN(CCO)CC4)ccc3OC)(N3CCC[C@H]3c3ncco3)c3cc(C#N)ccc32)cc1 (stereo partly drawn) [Example 142, 5-Cyano-3-{5-[4-(2-hydroxyethyl)piperazin-1-ylmethyl]-2-methoxyphenyl}-1-(4-methoxybenzenesulfonyl)-3-((S)-2-oxazol-2-yl-pyrrolidin-1-yl)-1,3-dihydroindol-2-one]
3 | < 10 | COc1ccc(S(=O)(=O)N2C(=O)C(c3cc(CN4CCNC(=O)C4)ccc3OC)(N3CCC[C@H]3c3ncco3)c3cc(C#N)ccc32)cc1 (stereo partly drawn) [Example 143, 5-Cyano-1-(4-methoxy-benzenesulfonyl)-3-[2-methoxy-5-(3-oxo-piperazin-1-ylmethyl)phenyl]-3-((S)-2-oxazol-2-yl-pyrrolidin-1-yl)-1,3-dihydroindol-2-one]
4 | < 10 | CCN1CCN(Cc2ccc(C3(N4CCC[C@H]4c4ncco4)C(=O)N(S(=O)(=O)c4ccc(C#N)cc4)c4ccc(Cl)cc43)c(OC)c2)CC1 (stereo partly drawn) [Example 152, 5-Chloro-3-[4-(4-ethylpiperazin-1-ylmethyl)-2-methoxyphenyl]-3-((S)-2-oxazol-2-yl-pyrrolidin-1-yl)-1-(4-cyanobenzenesulfonyl)-1,3-dihydroindol-2-one]
5 | 10 to 100 | COc1cc(CN2CCCC2)ccc1C1(N2CCC[C@H]2c2ncco2)C(=O)N(S(=O)(=O)c2ccc(C#N)cc2)c2ccc(Cl)cc21 (stereo partly drawn) [Example 157, 5-Chloro-3-(2-methoxy-4-pyrrolidin-1-ylmethylphenyl)-3-((S)-2-oxazol-2-yl-pyrrolidin-1-yl)-1-(4-cyanobenzenesulfonyl)-1,3-dihydroindol-2-one]
6 | < 10 | COc1cc(CN2CCN(C)CC2)ccc1C1(N2CCC[C@H]2c2ncco2)C(=O)N(S(=O)(=O)c2ccc(C#N)cc2)c2ccc(Cl)cc21 (stereo partly drawn) [Example 158, 5-Chloro-3-[2-methoxy-4-(4-methylpiperazin-1-ylmethyl)phenyl]-3-((S)-2-oxazol-2-yl-pyrrolidin-1-yl)-1-(4-cyanobenzenesulfonyl)-1,3-dihydroindol-2-one]
7 | 10 to 100 | CCCNCc1ccc(C2(N3CCC[C@H]3c3ncco3)C(=O)N(S(=O)(=O)c3ccc(C#N)cc3)c3ccc(Cl)cc32)c(OC)c1 (stereo partly drawn) [Example 159, 5-Chloro-3-(2-methoxy-4-propylaminomethylphenyl)-3-((S)-2-oxazol-2-yl-pyrrolidin-1-yl)-1-(4-cyanobenzenesulfonyl)-1,3-dihydroindol-2-one]
8 | < 10 | COc1ccc(S(=O)(=O)N2C(=O)C(c3cc(CN4CCNCC4)ccc3OC)(N3C[C@H](O)C[C@H]3c3ncco3)c3cc(C#N)ccc32)cc1 (stereo partly drawn) [Example 160, 5-Cyano-3-((2S,4R)-4-hydroxy-2-oxazol-2-yl-pyrrolidin-1-yl)-1-(4-methoxybenzenesulfonyl)-3-(2-methoxy-5-piperazin-1-ylmethylphenyl)-1,3-dihydroindol-2-one]
9 | < 10 | C=CCNCc1ccc(OC)c(C2(N3CCC[C@H]3c3ncco3)C(=O)N(S(=O)(=O)c3ccc(OC)cc3)c3ccc(Cl)cc32)c1 (stereo partly drawn) [Example 161, 5-Chloro-3-(5-allylaminomethyl-2-methoxyphenyl)-1-(4-methoxybenzenesulfonyl)-3-((S)-2-oxazol-2-yl-pyrrolidin-1-yl)-1,3-dihydroindol-2-one]

The next lines start with the molecule.

Row | Structure (SMILES) | Ki [nM]
10 | COc1ccc(S(=O)(=O)N2C(=O)C(c3cc(CN4CCCN(C)CC4)ccc3OC)(N3CCC[C@H]3c3ncco3)c3cc(C#N)ccc32)cc1 (stereo partly drawn) [Example 144, 5-Cyano-1-(4-methoxybenzenesulfonyl)-3-[2-methoxy-5-(4-methyl-[1,4]diazepan-1-ylmethyl)phenyl]-3-((S)-2-oxazol-2-yl-pyrrolidin-1-yl)-1,3-dihydroindol-2-one] | < 10
11 | COc1ccc(CN2CCN(C)CC2)cc1C1(N2CCC[C@H]2c2ncco2)C(=O)N(S(=O)(=O)c2ccc(OC(F)F)cc2)c2ccc(Cl)cc21 (stereo partly drawn) [Example 145, 5-Chloro-1-(4-difluoromethoxybenzenesulfonyl)-3-[2-methoxy-5-(4-methylpiperazin-1-ylmethyl)phenyl]-3-((S)-2-oxazol-2-yl-pyrrolidin-1-yl)-1,3-dihydroindol-2-one] | 10 to 100
12 | COc1ccc(S(=O)(=O)N2C(=O)C(c3ccc(CN4CCOCC4)cc3OC)(N3CCC[C@H]3c3ncco3)c3cc(Cl)ccc32)cc1 (stereo partly drawn) [Example 146, 5-Chloro-1-(4-methoxybenzenesulfonyl)-3-(2-methoxy-4-(morpholin-4-ylmethyl)phenyl)-3-((S)-2-oxazol-2-yl-pyrrolidin-1-yl)-1,3-dihydroindol-2-one] | 10 to 100
13 | COc1ccc(S(=O)(=O)N2C(=O)C(c3ccc(CN4CCN(CCO)CC4)cc3OC)(N3CCC[C@H]3c3ncco3)c3cc(C#N)ccc32)cc1 (stereo partly drawn) [Example 147, 5-Cyano-3-{4-[4-(2-hydroxyethyl)piperazin-1-ylmethyl]-2-methoxyphenyl}-1-(4-methoxybenzenesulfonyl)-3-((S)-2-oxazol-2-yl-pyrrolidin-1-yl)-1,3-dihydroindol-2-one] | < 10
14 | CCN1CCN(Cc2ccc(C3(N4CCC[C@H]4c4ncco4)C(=O)N(S(=O)(=O)c4ccc(OC)cc4)c4ccc(C#N)cc43)c(OC)c2)CC1 (stereo partly drawn) [Example 148, 5-Cyano-3-[4-(4-ethylpiperazin-1-ylmethyl)-2-methoxyphenyl]-1-(4-methoxybenzenesulfonyl)-3-((S)-2-oxazol-2-yl-pyrrolidin-1-yl)-1,3-dihydroindol-2-one] | < 10
15 | COc1ccc(S(=O)(=O)N2C(=O)C(c3cc(CN(C)C)ccc3OC)(N3C[C@H](O)C[C@H]3c3ncco3)c3cc(C#N)ccc32)cc1 (stereo partly drawn) [Example 150, 5-Cyano-3-(5-dimethylaminomethyl-2-methoxyphenyl)-3-((2S,4R)-4-hydroxy-2-oxazol-2-yl-pyrrolidin-1-yl)-1-(4-methoxybenzenesulfonyl)-1,3-dihydroindol-2-one] | < 10
16 | CCNCc1ccc(OC)c(C2(N3C[C@H](O)C[C@H]3c3ncco3)C(=O)N(S(=O)(=O)c3ccc(OC)cc3)c3ccc(C#N)cc32)c1 (stereo partly drawn) [Example 151, 5-Cyano-3-(5-ethylaminomethyl-2-methoxyphenyl)-3-((2S,4R)-4-hydroxy-2-oxazol-2-yl-pyrrolidin-1-yl)-1-(4-methoxybenzenesulfonyl)-1,3-dihydroindol-2-one] | < 10
17 | COc1ccc(S(=O)(=O)N2C(=O)C(c3ccc(CN4CCNCC4)cc3OC)(N3CCC[C@H]3c3ncco3)c3cc(C#N)ccc32)cc1 (stereo partly drawn) [Example 153, 5-Cyano-1-(4-methoxybenzenesulfonyl)-3-(2-methoxy-4-piperazin-1-ylmethylphenyl)-3-((S)-2-oxazol-2-yl-pyrrolidin-1-yl)-1,3-dihydroindol-2-one] | < 10
18 | COc1ccc(S(=O)(=O)N2C(=O)C(c3ccc(CNCCO)cc3OC)(N3CCC[C@H]3c3ncco3)c3cc(C#N)ccc32)cc1 (stereo partly drawn) [Example 154, 5-Cyano-3-{4-[(2-hydroxyethylamino)methyl]-2-methoxyphenyl}-1-(4-methoxybenzenesulfonyl)-3-((S)-2-oxazol-2-yl-pyrrolidin-1-yl)-1,3-dihydroindol-2-one] | < 10
19 | CNCc1ccc(OC)c(C2(N3CCCC3c3nccs3)C(=O)N(S(=O)(=O)c3ccc(OC)cc3)c3ccc(Cl)cc32)c1 (centres unmarked) [Example 155, 5-Chloro-1-(4-methoxybenzenesulfonyl)-3-(2-methoxy-5-methylaminomethylphenyl)-3-(2-thiazol-2-yl-pyrrolidin-1-yl)-1,3-dihydroindol-2-one] | < 10
20 | COc1cc(CN(C)C)ccc1C1(N2CCC[C@H]2c2ncco2)C(=O)N(S(=O)(=O)c2ccc(C#N)cc2)c2ccc(Cl)cc21 (stereo partly drawn) [Example 156, 5-Chloro-3-(4-dimethylaminomethyl-2-methoxyphenyl)-3-((S)-2-oxazol-2-yl-pyrrolidin-1-yl)-1-(4-cyanobenzenesulfonyl)-1,3-dihydroindol-2-one] | 10 to 100
21 | COc1cc(CN2CCNCC2)ccc1C1(N2CCC[C@H]2c2ncco2)C(=O)N(S(=O)(=O)c2ccc(C#N)cc2)c2ccc(Cl)cc21 (stereo partly drawn) [Example 162, 5-Chloro-3-(2-methoxy-4-piperazin-1-ylmethylphenyl)-3-((S)-2-oxazol-2-yl-pyrrolidin-1-yl)-1-(4-cyanobenzenesulfonyl)-1,3-dihydroindol-2-one] | < 10
22 | CNCc1ccc(OC)c(C2(N3C[C@H](O)C[C@H]3c3ncco3)C(=O)N(S(=O)(=O)c3ccc(OC)cc3)c3ccc(C#N)cc32)c1 (stereo partly drawn) [Example 163, 5-Cyano-3-((2S,4R)-4-hydroxy-2-oxazol-2-yl-pyrrolidin-1-yl)-1-(4-methoxybenzenesulfonyl)-3-(2-methoxy-5-methylaminomethylphenyl)-1,3-dihydroindol-2-one] | < 10
23 | COc1ccc(S(=O)(=O)N2C(=O)C(c3cc(CN4CCN(C)CC4)cnc3OC)(N3CCC[C@H]3c3ncco3)c3cc(Cl)ccc32)cc1 (stereo partly drawn) [Example 164, 5-Chloro-1-(4-methoxybenzenesulfonyl)-3-[2-methoxy-5-(4-methylpiperazin-1-ylmethyl)pyridin-3-yl]-3-((S)-2-oxazol-2-yl-pyrrolidin-1-yl)-1,3-dihydroindol-2-one] | < 10
